Earlier results in patent US20250235394A1, “BIOFILM-TARGETING NANOPARTICLES TO INCREASE THE […] OF FLUORIDE” (The Regents of The University of Michigan, priority 2021, published 2025).

Conditions: solution containing 226 ppm F as CaF2

precipitation in solution: precipitation of CaF2 promptly occurs
SMILES: [Ca+2].[F-].[F-] [CaF2, calcium fluoride]
